# Experiments:
# M. gallisepticum S6 = assay: Anti-mycoplasma MIC; type: cell-based; details: Mycoplasmoides gallisepticum, S6
# Strep. pyogenes A 64/848 = assay: MIC by serial dilution in nutrient agar (human bacteria); details: Streptococcus pyogenes, A64/848
# M. bovis NCTC 10131 = assay: microbe, parasite or virus in culture; type: cell-based; details: NCTC10131
# [1] = system: Staph. aureus B4 (pen resistant); assay: MIC against veterinary bacteria; details: Staphylococcus aureus
# B. subtilis = assay: MIC by serial dilution in nutrient agar (human bacteria); details: Bacillus subtilis
# M. pneumoniae ATCC 15492 = assay: Anti-mycoplasma MIC; type: cell-based; details: Mycoplasmoides pneumoniae, ATCC15492, M. pneumoniae ATCC 15492
# M. synoviae ATCC 25204 = assay: Anti-mycoplasma MIC; type: cell-based; details: Mycoplasmopsis synoviae, ATCC25204
# [2] = system: M. alkalescens NCTC 10135; assay: Anti-mycoplasma MIC; type: cell-based
# M. dispar H225 = assay: Anti-mycoplasma MIC; type: cell-based
# M. bovis ATCC 25025 = assay: microbe, parasite or virus in culture; type: cell-based; details: ATCC25025
# Strep. pneumoniae CN33 = assay: MIC by serial dilution in nutrient agar (human bacteria); details: Streptococcus pneumoniae
# Past. multocida PA2 = assay: MIC against veterinary bacteria; details: Pasteurella multocida
# Staph. aureus 1517 = assay: MIC by serial dilution in nutrient agar (human bacteria); type: cell-based; details: Staphylococcus aureus
# Past. multocida 1633 = assay: as above; details: Pasteurella multocida
# [3] = system: M. suipneumoniae J2206/183b; assay: Anti-mycoplasma MIC; type: cell-based; details: Mesomycoplasma hyopneumoniae, J2206/183B
# M. dispar NCTC 10125 = assay: Anti-mycoplasma MIC; type: cell-based
# H. influenzae Q1 = assay: MIC by serial dilution in nutrient agar (human bacteria); details: Haemophilus influenzae
# Bord. bronchiseptica BO9 = assay: MIC against veterinary bacteria; details: Bordetella bronchiseptica
# Staph. aureus Russell = assay: MIC by serial dilution in nutrient agar (human bacteria); details: Staphylococcus aureus
# Past. haemolytica PA5 = assay: MIC against veterinary bacteria; details: Mannheimia haemolytica
# N. catarrhalis 1502 = assay: MIC by serial dilution in nutrient agar (human bacteria); details: Neisseria
# M. fermentans MWKL4 = assay: Anti-mycoplasma MIC; type: cell-based; details: Mycoplasmopsis fermentans
# M. suipneumoniae Str. 11 = assay: Anti-mycoplasma MIC; type: cell-based; details: Mesomycoplasma hyopneumoniae, STR.11
# [4] = system: M. bovigenitalium ATCC 14173; assay: Anti-mycoplasma MIC; type: cell-based
# Past. multocida PA1 = assay: MIC against veterinary bacteria; details: Pasteurella multocida
# Strep. dysgalactiae SPD1 = assay: MIC against veterinary bacteria; details: Streptococcus dysgalactiae
# M. hyorhinis ATCC 23234 = assay: Anti-mycoplasma MIC; type: cell-based; details: Mesomycoplasma hyorhinis, ATCC23234
# Strep. pyogenes C 2761 = assay: MIC by serial dilution in nutrient agar (human bacteria); details: Streptococcus pyogenes, C2761
# Staph. aureus Oxford = assay: as above; details: Staphylococcus aureus
# Bord. bronchiseptica BO8 = assay: MIC against veterinary bacteria; details: Bordetella bronchiseptica
# Strep. pyogenes B 2788 = assay: MIC by serial dilution in nutrient agar (human bacteria); details: Streptococcus pyogenes, B2788
# [5] = system: M. hyosynoviae ATCC 25591; assay: Anti-mycoplasma MIC; type: cell-based
# M. pneumoniae 427a = assay: Anti-mycoplasma MIC; type: cell-based; details: Mycoplasmoides pneumoniae
# Strep. uberis SPU1 = assay: MIC against veterinary bacteria; details: Streptococcus uberis
# M. pulmonis JB = assay: Anti-mycoplasma MIC; type: cell-based; details: Mycoplasmopsis pulmonis
# Strep. agalactiae SPA1 = assay: MIC against veterinary bacteria; details: Streptococcus agalactiae
# [6] = system: M. arthritidis ATCC 14124; assay: Anti-mycoplasma MIC; type: cell-based
# H. influenzae Wy21 = assay: MIC by serial dilution in nutrient agar (human bacteria); details: Haemophilus influenzae
# [7] = Agar (serial dilution in Friis' agar)
# [8] = Broth (Friis' broth, microtiter method)
compound,measurement,setting,value
"CCOC(=O)/C=C(\C)CC1OCC(C/C=C/C(C)C(C)O)C(O)C1O (stereo not drawn) [Ethyl, Ethyl Monate C]",MIC,M. gallisepticum S6,> 10 µg/mL
same,MIC,Strep. pyogenes A 64/848,10 µg/mL
same,MIC,M. bovis NCTC 10131,0.156 µg/mL
same,MIC,[1],1.25 µg/mL
same,MIC,B. subtilis,1 µg/mL
same,MIC,M. pneumoniae ATCC 15492; [7],5 µg/mL
same,MIC,M. pneumoniae ATCC 15492; [8],10 µg/mL
same,MIC,M. synoviae ATCC 25204,0.039 µg/mL
same,MIC,[2],0.039 µg/mL
same,MIC,M. dispar H225,0.078 µg/mL
same,MIC,M. bovis ATCC 25025,0.156 µg/mL
same,MIC,Strep. pneumoniae CN33,2.5 µg/mL
same,MIC,Past. multocida PA2,5 µg/mL
same,MIC,Staph. aureus 1517,0.2 µg/mL
same,MIC,Past. multocida 1633,5 µg/mL
same,MIC,[3],10 µg/mL
same,MIC,M. dispar NCTC 10125,0.156 µg/mL
same,MIC,H. influenzae Q1,0.2 µg/mL
same,MIC,Bord. bronchiseptica BO9,40 µg/mL
same,MIC,Staph. aureus Russell,0.2 µg/mL
same,MIC,Past. haemolytica PA5,40 µg/mL
same,MIC,N. catarrhalis 1502,0.2 µg/mL
same,MIC,M. fermentans MWKL4; [7],0.312 µg/mL
same,MIC,M. fermentans MWKL4; [8],0.156 µg/mL
same,MIC,M. suipneumoniae Str. 11,1.25 µg/mL
same,MIC,[4],0.078 µg/mL
same,MIC,Past. multocida PA1,5 µg/mL
same,MIC,Strep. dysgalactiae SPD1,20 µg/mL
same,MIC,M. hyorhinis ATCC 23234,2.5 µg/mL
same,MIC,Strep. pyogenes C 2761,5 µg/mL
same,MIC,Staph. aureus Oxford,0.2 µg/mL
same,MIC,Bord. bronchiseptica BO8,> 80 µg/mL
same,MIC,Strep. pyogenes B 2788,0.5 µg/mL
same,MIC,[5],1.25 µg/mL
same,MIC,M. pneumoniae 427a; [7],5 µg/mL
same,MIC,M. pneumoniae 427a; [8],10 µg/mL
same,MIC,Strep. uberis SPU1,5 µg/mL
same,MIC,M. pulmonis JB; [7],0.039 µg/mL
same,MIC,M. pulmonis JB; [8],0.156 µg/mL
same,MIC,Strep. agalactiae SPA1,20 µg/mL
same,MIC,[6],> 10 µg/mL
same,MIC,H. influenzae Wy21,1 µg/mL
"COC(=O)/C=C(\C)CC1OCC(C/C=C/C(C)C(C)O)C(O)C1O (stereo not drawn) [Methyl, Methyl Monate C]",MIC,M. gallisepticum S6,> 10 µg/mL
same,MIC,Strep. pyogenes A 64/848,> 100 µg/mL
same,MIC,M. bovis NCTC 10131,0.312 µg/mL
same,MIC,B. subtilis,2.5 µg/mL
same,MIC,M. pneumoniae ATCC 15492; [7],> 10 µg/mL
same,MIC,M. pneumoniae ATCC 15492; [8],10 µg/mL
same,MIC,M. synoviae ATCC 25204,0.156 µg/mL
same,MIC,[2],0.156 µg/mL
same,MIC,M. dispar H225,0.625 µg/mL
same,MIC,M. bovis ATCC 25025,0.312 µg/mL
same,MIC,Strep. pneumoniae CN33,25 µg/mL
same,MIC,Staph. aureus 1517,2.5 µg/mL
same,MIC,Past. multocida 1633,10 µg/mL
same,MIC,[3],2.5 µg/mL
same,MIC,M. dispar NCTC 10125,0.312 µg/mL
same,MIC,H. influenzae Q1,1 µg/mL
same,MIC,Staph. aureus Russell,2.5 µg/mL
same,MIC,N. catarrhalis 1502,1 µg/mL
same,MIC,M. fermentans MWKL4; [7],0.625 µg/mL
same,MIC,M. fermentans MWKL4; [8],0.312 µg/mL
same,MIC,M. suipneumoniae Str. 11,2.5 µg/mL
same,MIC,[4],0.156 µg/mL
same,MIC,M. hyorhinis ATCC 23234,1.25 µg/mL
same,MIC,Strep. pyogenes C 2761,> 100 µg/mL
same,MIC,Staph. aureus Oxford,1 µg/mL
same,MIC,Strep. pyogenes B 2788,25 µg/mL
same,MIC,[5],5 µg/mL
same,MIC,M. pneumoniae 427a; [7],> 10 µg/mL
same,MIC,M. pneumoniae 427a; [8],> 10 µg/mL
same,MIC,M. pulmonis JB; [7],0.312 µg/mL
same,MIC,M. pulmonis JB; [8],0.156 µg/mL
same,MIC,[6],> 10 µg/mL
same,MIC,H. influenzae Wy21,2.5 µg/mL

# From patent US4248887A, “Antibacterial compounds, processes for their preparation and compositions containing them” (priority 1978, dated 1981)
